Data as given in US12446495B2, “Injection systems, injection tools and methods for same” (Invaio Sciences International GmbH, priority 2018, dated 2025).

Assay: Distribution of test substance within plants after trunk injection
Format: in vivo
Conditions: solution comprising 2% Brilliant Blue E 133 injected; trees felled and cut in pieces; over 24 hours
From the text: The trunk injection devices have been tested regarding the use with different types of trunks, the speed of absorption, distribution of product within the plant, and the continuing usage of an injection device within a trunk. The injection devices have been tested with trunks with a diameter between 2 cm and 30 cm. The tests have been conducted with box, vine, hazelnut, walnut, maple, beach and oak. Further, trees such as date palm, citrus tree, and banana tree would be suitable as well.′ Speed of absorption is influenced by factors such as weather, season, time of day and injection pressure. Within tests conducted under ideal conditions, an injection pressure of 2.5 bars, and 10 ml of test substance, absorption times below 2 minutes have been achieved.
Distribution within plants has been tested injecting a solution comprising 2% Brilliant Blue E 133 (CAS reg. No. 3844-45-9.) as a test substance. Trees have afterwards been felled and cut in pieces to analyze the distribution of the test substance over time within the plant. The test substance did typically distribute over 5 meters within the stem over 24 hours.

distribution of the test substance within the stem: ~5 meters
SMILES: CCN(Cc1cccc(S(=O)(=O)[O-])c1)c1ccc(C(=C2C=CC(=[N+](CC)Cc3cccc(S(=O)(=O)[O-])c3)C=C2)c2ccccc2S(=O)(=O)[O-])cc1.[Na+].[Na+] [Brilliant Blue E 133]
